Assay results: patent publication US6737383B1, “Herbicidal oxadiazolidines” (priority 1999, dated 2004)

Tests used:
soybean = assay: Test B pre/postemergence soybean; type: in vivo, Glycine max; details: for Soybean plant response rating: scale of 0 to 10 where 0 is no effect and 10 is complete control
How it was run: (§1)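 Herbicidal effect was estimated by eye on a ten-point control scale after plants spent twelve to sixteen days in a greenhouse following soil or foliar treatment. Foliar sprays targeted plants at one to four leaves; all doses were formulated in a non-phytotoxic solvent with surfactant.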

surinam grass = assay: Test B pre/postemergence surinam grass; type: in vivo, Brachiaria decumbens; details: for B. signalgrass plant response rating: scale of 0 to 10 where 0 is no effect and 10 is complete control
How it was run: as §1

rice = assay: Test B flood test rice; type: in vivo, Oryza sativa; details: Pre-emergence
How it was run: (§2)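 Each value is a visual injury score relative to controls, with 10 meaning complete control and 0 no effect. Evaluation took place twelve to sixteen days after the 2-leaf-stage plants were treated and kept in the greenhouse.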

purple nutsedge = assay: Test B pre/postemergence purple nutsedge; type: in vivo, Cyperus rotundus; details: for Nutsedge plant response rating: scale of 0 to 10 where 0 is no effect and 10 is complete control
How it was run: as §1

morningglory = assay: Test B pre/postemergence morningglory; type: in vivo, Ipomoea hederacea; details: for Morningglory plant response rating: scale of 0 to 10 where 0 is no effect and 10 is complete control
How it was run: as §1

corn = assay: Test B pre/postemergence corn; type: in vivo, Zea mays; details: for Corn plant response rating: scale of 0 to 10 where 0 is no effect and 10 is complete control
How it was run: as §1

giant foxtail = assay: Test B pre/postemergence giant foxtail; type: in vivo, Setaria faberii; details: for Giant foxtail plant response rating: scale of 0 to 10 where 0 is no effect and 10 is complete control
How it was run: as §1

wild oat = assay: Test B pre/postemergence wild oat; type: in vivo, Avena fatua; details: for Wild oats plant response rating: scale of 0 to 10 where 0 is no effect and 10 is complete control
How it was run: as §1

velvetleaf = assay: Test B pre/postemergence velvetleaf; type: in vivo, Abutilon theophrasti; details: for Velvetleaf plant response rating: scale of 0 to 10 where 0 is no effect and 10 is complete control
How it was run: as §1

bedstraw = assay: Test B pre/postemergence bedstraw; type: in vivo, Galium aparine; details: Preemergence; for Bedstraw plant response rating: scale of 0 to 10 where 0 is no effect and 10 is complete control
How it was run: as §1

wheat = assay: Test B pre/postemergence wheat; type: in vivo, Triticum aestivum; details: for Wheat plant response rating: scale of 0 to 10 where 0 is no effect and 10 is complete control
How it was run: as §1

bamyardgrass = assay: Test B flood test barnyardgrass; type: in vivo, Echinochloa crus-galli; details: Pre-emergence
How it was run: as §2

cocklebur = assay: Test B pre/postemergence cocklebur; type: in vivo, Xanthium strumarium; details: for Cocklebur plant response rating: scale of 0 to 10 where 0 is no effect and 10 is complete control
How it was run: as §1

duck salad = assay: Test B flood test duck salad; type: in vivo, Heteranthera limosa; details: Pre-emergence
How it was run: as §2

blackgrass = assay: Test B pre/postemergence blackgrass; type: in vivo, Alopecurus myosuroides; details: for Blackgrass plant response rating: scale of 0 to 10 where 0 is no effect and 10 is complete control
How it was run: as §1

smallflower flatsedge = assay: Test B flood test smallflower flatsedge; type: in vivo, Cyperus difformis; details: Pre-emergence
How it was run: as §2

crabgrass = assay: Test B pre/postemergence crabgrass; type: in vivo, Digitaria sanguinalis; details: for Crabgrass plant response rating: scale of 0 to 10 where 0 is no effect and 10 is complete control
How it was run: as §1

[1] = Postemergence, Rate 125 g/ha, scale 0 to 10, 0 is no effect, 10 is complete control
[2] = Postemergence, Rate 250 g/ha, scale 0 to 10, 0 is no effect, 10 is complete control
[3] = Preemergence, Rate 62 g/ha, scale 0 to 10 (0 no effect, 10 complete control)
[4] = Rate 500 g/ha, Postemergence, scale 0 to 10, 0 no effect, 10 complete control
[5] = Rate 62 g/ha, flood test species, visual evaluation after twelve to sixteen days
[6] = Rate 125 g/ha, flood test species, scale 0 to 10 where 0 is no effect and 10 is complete control
[7] = Rate 250 g/ha, flood-test species, scale 0 to 10, 0 is no effect, 10 is complete control
[8] = Rate 500 g/ha, flood test species, scale 0 to 10 (0 no effect, 10 complete control)

CC(C)N(C(=O)n1oc(=O)n(C(C)CCl)c1=O)c1ccc(F)cc1 (stereo not shown) [Compound 367]
8: Plant response rating, Giant foxtail (giant foxtail; [2]) | Plant response rating, Giant foxtail (giant foxtail; [4]) | Plant response rating, Wild oats (wild oat; [4]) | Blackgrass plant response rating (blackgrass; Preemergence, Rate 250 g/ha) | Plant response rating, Blackgrass (blackgrass; [4]) | Plant response rating, Crabgrass (crabgrass; [2]) | Plant response rating, Crabgrass (crabgrass; [4])
1: Plant response rating, Soybean (soybean; [1]) | Plant response rating, Soybean (soybean; [2])
6: Plant response rating, Morningglory (morningglory; [2]) | Velvetleaf plant response rating (velvetleaf; Preemergence, Rate 500 g/ha) | Plant response rating, Wheat (wheat; [4]) | Plant response rating, Crabgrass (crabgrass; [3])
3: Plant response rating, Nutsedge (purple nutsedge; [4]) | Plant response rating, Giant foxtail (giant foxtail; [1]) | Wild oats plant response rating (0 to 10 scale) (wild oat; Preemergence, Rate 125 g/ha) | Wild oats plant response rating (wild oat; Preemergence, Rate 250 g/ha) | Plant response rating, Velvetleaf (velvetleaf; [3]) | Velvetleaf plant response rating (0 to 10 scale) (velvetleaf; Preemergence, Rate 125 g/ha) | Plant response rating, Velvetleaf (velvetleaf; [4])
2: Plant response rating, Soybean (soybean; [4]) | Morningglory plant response rating (morningglory; Preemergence, Rate 500 g/ha) | Corn plant response rating (corn; Preemergence, Rate 250 g/ha) | Plant response rating, Velvetleaf (velvetleaf; [1]) | Plant response rating, Velvetleaf (velvetleaf; [2]) | Plant response rating, Cocklebur (cocklebur; [4]) | Plant response rating, Blackgrass (blackgrass; [3]) | Plant response rating, Crabgrass (crabgrass; [1])
10: Plant response rating, Giant foxtail (giant foxtail; [3]) | Giant foxtail plant response rating (0 to 10 scale) (giant foxtail; Preemergence, Rate 125 g/ha) | Giant foxtail plant response rating (giant foxtail; Preemergence, Rate 250 g/ha) | Giant foxtail plant response rating (giant foxtail; Preemergence, Rate 500 g/ha) | Plant response rating, Bedstraw (bedstraw; Rate 62 g/ha, scale 0 to 10 (0 no effect, 10 complete control)) | Bedstraw plant response rating (0 to 10 scale) (bedstraw; Rate 125 g/ha) | Bedstraw plant response rating (bedstraw; Rate 250 g/ha) | Bedstraw plant response rating (bedstraw; Rate 500 g/ha) | Blackgrass plant response rating (blackgrass; Preemergence, Rate 500 g/ha) | Crabgrass plant response rating (crabgrass; Preemergence, Rate 250 g/ha) | Crabgrass plant response rating (crabgrass; Preemergence, Rate 500 g/ha)
7: Plant response rating, Morningglory (morningglory; [4]) | Wild oats plant response rating (wild oat; Preemergence, Rate 500 g/ha) | Blackgrass plant response rating (0 to 10 scale) (blackgrass; Preemergence, Rate 125 g/ha)
0: Plant response rating, Soybean (soybean; [3]) | Soybean plant response rating (0 to 10 scale) (soybean; Preemergence, Rate 125 g/ha) | Soybean plant response rating (soybean; Preemergence, Rate 250 g/ha) | Soybean plant response rating (soybean; Preemergence, Rate 500 g/ha) | Soybean plant response rating (soybean; Rate 62 g/ha, Postemergence) | Plant response rating, B. signalgrass (surinam grass; [1]) | Plant response rating, B. signalgrass (surinam grass; [2]) | Plant response rating, B. signalgrass (surinam grass; [3]) | B. signalgrass plant response rating (0 to 10 scale, 0 is no effect, 10 is complete control) (surinam grass; Preemergence, Rate 125 g/ha) | B. signalgrass plant response rating (surinam grass; Rate 62 g/ha, Postemergence) | Plant response rating, Rice (0 to 10 scale, 0 is no effect, 10 is complete control) (rice; [5]) | Rice plant response rating (rice; [6]) | Rice plant response rating (rice; [7]) | Rice plant response rating (rice; [8]) | Plant response rating, Nutsedge (purple nutsedge; [1]) | Plant response rating, Nutsedge (purple nutsedge; [2]) | Plant response rating, Nutsedge (purple nutsedge; [3]) | Nutsedge plant response rating (0 to 10 scale) (purple nutsedge; Preemergence, Rate 125 g/ha) | Nutsedge plant response rating (purple nutsedge; Preemergence, Rate 250 g/ha) | Nutsedge plant response rating (purple nutsedge; Preemergence, Rate 500 g/ha) | Nutsedge plant response rating (purple nutsedge; Rate 62 g/ha, Postemergence) | Plant response rating, Morningglory (morningglory; [3]) | Morningglory plant response rating (0 to 10 scale) (morningglory; Preemergence, Rate 125 g/ha) | Morningglory plant response rating (morningglory; Preemergence, Rate 250 g/ha) | Plant response rating, Corn (corn; [1]) | Plant response rating, Corn (corn; [2]) | Plant response rating, Corn (corn; [3]) | Corn plant response rating (0 to 10 scale) (corn; Preemergence, Rate 125 g/ha) | Corn plant response rating (corn; Rate 62 g/ha, Postemergence) | Plant response rating, Corn (corn; [4]) | Giant foxtail plant response rating (giant foxtail; Rate 62 g/ha, Postemergence) | Plant response rating, Wild oats (wild oat; [1]) | Plant response rating, Wild oats (wild oat; [2]) | Plant response rating, Wild oats (wild oat; [3]) | Wild oats plant response rating (wild oat; Rate 62 g/ha, Postemergence) | Velvetleaf plant response rating (velvetleaf; Rate 62 g/ha, Postemergence) | Plant response rating, Wheat (wheat; [1]) | Plant response rating, Wheat (wheat; [2]) | Plant response rating, Wheat (wheat; [3]) | Wheat plant response rating (0 to 10 scale) (wheat; Preemergence, Rate 125 g/ha) | Wheat plant response rating (wheat; Preemergence, Rate 250 g/ha) | Wheat plant response rating (wheat; Preemergence, Rate 500 g/ha) | Wheat plant response rating (wheat; Rate 62 g/ha, Postemergence) | Plant response rating, Barnyardgrass (0 to 10 scale, 0 is no effect, 10 is complete control) (bamyardgrass; [5]) | Barnyardgrass plant response rating (bamyardgrass; [6]) | Barnyardgrass plant response rating (bamyardgrass; [7]) | Barnyardgrass plant response rating (bamyardgrass; [8]) | Plant response rating, Cocklebur (cocklebur; [1]) | Plant response rating, Cocklebur (cocklebur; [2]) | Plant response rating, Cocklebur (cocklebur; [3]) | Cocklebur plant response rating (0 to 10 scale) (cocklebur; Preemergence, Rate 125 g/ha) | Cocklebur plant response rating (cocklebur; Preemergence, Rate 250 g/ha) | Cocklebur plant response rating (cocklebur; Rate 62 g/ha, Postemergence) | Plant response rating, Ducksalad (0 to 10 scale, 0 is no effect, 10 is complete control) (duck salad; [5]) | Ducksalad plant response rating (duck salad; [6]) | Ducksalad plant response rating (duck salad; [7]) | Ducksalad plant response rating (duck salad; [8]) | Plant response rating, Blackgrass (blackgrass; [1]) | Plant response rating, Blackgrass (blackgrass; [2]) | Blackgrass plant response rating (blackgrass; Rate 62 g/ha, Postemergence) | Plant response rating, S. Flatsedge (0 to 10 scale, 0 is no effect, 10 is complete control) (smallflower flatsedge; [5]) | S. Flatsedge plant response rating (smallflower flatsedge; [6]) | S. Flatsedge plant response rating (smallflower flatsedge; [7]) | S. Flatsedge plant response rating (smallflower flatsedge; [8]) | Crabgrass plant response rating (crabgrass; Rate 62 g/ha, Postemergence)
5: B. signalgrass plant response rating (surinam grass; Preemergence, Rate 500 g/ha) | Plant response rating, Morningglory (morningglory; [1]) | Morningglory plant response rating (morningglory; Rate 62 g/ha, Postemergence) | Corn plant response rating (corn; Preemergence, Rate 500 g/ha) | Velvetleaf plant response rating (velvetleaf; Preemergence, Rate 250 g/ha)
4: B. signalgrass plant response rating (surinam grass; Preemergence, Rate 250 g/ha) | Plant response rating, B. signalgrass (surinam grass; [4])
9: Crabgrass plant response rating (0 to 10 scale) (crabgrass; Preemergence, Rate 125 g/ha)
